The source of these data is US20180305334A1, “COMPOUNDS, COMPOSITIONS AND METHODS OF USE AGAINST STRESS GRANULES” (Aquinnah Pharmaceuticals, Inc., priority 2015, published 2018).

For the first assay, the system named is TDP-43 aggregation in PC12 cells stably expressing TDP-43^Q331K::eGFP. Kind of assay: In vitro efficacy assay, TDP-43 aggregation concentration-response. Format: cell-based. The settings on record: Rattus norvegicus, PC-12, inhibition of TDP-43 aggregation; PC12 TDP-43^Q331K::eGFP, 1 hour pre-treatment, 15 μM sodium arsenite for 23 hours; 10-point dose response. How it is done:
Exemplary compounds of the invention were evaluated for efficacy in inhibiting TDP-43 inclusions using a concentration-response assay. Briefly, PC12 cells stably expressing a GFP-tagged mutant form of TDP-43 (TDP-43^Q331K::eGFP) were pre-treated for 1 hour with exemplary compounds and stressed with 15 μM sodium arsenite for 23 hours to induce TDP-43 aggregation. The inhibitory effect on TDP-43 aggregation was measured using fluorescence microscopy. The ratio of cells with TDP-43 aggregates was calculated based on the total number of cells with detectable GFP expression.
As a reminder, the IC50 is the midpoint of a concentration-inhibition curve. As for `CCN(CC1CCCN(CCc2cccc(OC)c2)C1)C(=O)c1cc2c([nH]1)CCCC2` (stereo not drawn) [Compound 243], the IC50 is under 1.5 µM.
For the compound `CCN(CC1CCCN(Cc2ccc(OC(F)F)cc2)C1)C(=O)c1cc2cc(OC(F)F)ccc2[nH]1` (stereo not drawn) [Compound 178], the half-inhibitory concentration (IC50) is under 1.5 µM.
On the same count and under the same terms, next, `CCN(CC1CCN(Cc2ccc(Cl)cc2)CC1)C(=O)c1cc2ccccc2[nH]1` [compound 289]: over 10 µM.
Consider `COc1ccc(CN2CCC(CN(C)C(=O)c3cc4ccccc4[nH]3)CC2)cc1` [compound 261], for which the concentration for half-maximal inhibition (IC50) was in the range of 1.5 to 4 µM.
Turning to `CC(C)N(CC1CCN(Cc2ccccc2)CC1)C(=O)c1cc2ccccc2[nH]1` [compound 285], the IC50 was 1.5 to 4 µM.
As to `CCN(CC1CCCN(Cc2ccc(OC(F)(F)F)cc2)C1)C(=O)c1cc2cc(OC(F)(F)F)ccc2[nH]1` (stereo not drawn) [Compound 176], the IC50 was over 10 µM.
For the compound `CCN(CC1CCCNC1)C(=O)c1cc2c(Cl)cc(Cl)cc2[nH]1` (stereo not drawn) [compound 416], the IC50 was over 10 µM.
Same read-out and setting: the value for `CCN(CC1CCCN(CCc2cccc(OC)c2)C1)C(=O)c1nc2ccccc2n1C` (stereo not drawn) [Compound 240] was over 10 µM.
The same measure, in the same setting: the value for `CN(CC1CCN(Cc2ccccc2F)CC1)C(=O)c1cc2ccccc2[nH]1` [compound 258] was over 10 µM; that for `CCN(CC1CCCN(CCc2ccc(Cl)cc2)C1)C(=O)c1cc2ccccc2[nH]1` (stereo not drawn) [Compound 128] was under 1.5 µM.
Take `CCN(CC1CCCN(Cc2cc3ccccc3o2)C1)C(=O)c1cc2c(F)cc(F)cc2[nH]1` (stereo not drawn) [Compound 205]: the IC50 was 1.5 to 4 µM.
As to `CCN(CC1CCN(C(C)(C)Cc2ccc(F)cc2)CC1)C(=O)c1cc2ccccc2[nH]1` [Compound 345], the IC50 was 1.5 to 4 µM.
Same read-out and setting: the value for `CCN(CC1CCCN(Cc2ccc(Cl)cc2)C1)C(=O)c1cc2ccc(OC)cc2[nH]1` (stereo not drawn) [Compound 159] was 1.5 to 4 µM; that for `COc1cccc(CCN2CCC(CN(CC(F)(F)F)C(=O)c3cc4ccccc4[nH]3)CC2)c1` [compound 307] was under 1.5 µM.
With `CCN(CC1CCCN(CCc2cccc(OC(F)F)c2)C1)C(=O)c1cc2cc(OC(F)F)ccc2[nH]1` (stereo not drawn) [Compound 180], the IC50 is over 10 µM.
The same measure, in the same setting: the value for `CCN(CC1CCCN(CCc2ccccc2Cl)C1)C(=O)c1cc2ccccc2[nH]1` (stereo not drawn) [Compound 139] was 1.5 to 4 µM; that for `COc1cccc(CN2CCC(CN(C(=O)c3cc4ccccc4[nH]3)C(C)C)CC2)c1` [compound 279] was over 10 µM; that for `O=C(c1cc2ccccc2[nH]1)N(CC1CCN(CCc2cccc(F)c2)CC1)CC(F)(F)F` [compound 306] was under 1.5 µM.
With `CCN(CC1CCCN(CCc2cccc(OC)c2)C1)C(=O)c1nc2ccccc2[nH]1` (stereo not drawn) [Compound 230], the half-inhibitory concentration (IC50) is under 1.5 µM.
The same measure, in the same setting: the value for `CCN(CC1CCCN(Cc2cccc(OC)c2)C1)C(=O)c1cc2ccccc2[nH]1` (stereo not drawn) [compound 122] was under 1.5 µM.
On the same count and under the same terms, next, `CCN(CC1CCN(Cc2ccc(OC(F)(F)F)cc2)CC1)C(=O)c1cc2cc(OC(F)(F)F)ccc2[nH]1` [compound 309]: over 10 µM; `COc1cccc(CN2CCC(CNC(=O)c3cc4ccccc4[nH]3)CC2)c1` [compound 292]: over 10 µM.
On the same count and under the same terms, the value for `CC(C)N(CC1CCNCC1)C(=O)c1cc2ccccc2[nH]1` [compound 276] was over 10 µM.
For the compound `CCN(CC1CCN(C(C)(C)Cc2ccccc2)CC1)C(=O)c1cc2ccccc2[nH]1` [Compound 333], the IC50 was over 10 µM.
As to `CCN(CC1CCCN(Cc2cccc(C#N)c2)C1)C(=O)c1cc2ccccc2[nH]1` (stereo not drawn) [Compound 133], the IC50 lay within 1.5 to 4 µM.
Still for that read-out and setting: the value for `CCN(CC1CCCN(CCc2cccc(OC)c2)C1)C(=O)C1Cc2ccccc2N1C` (stereo not drawn) [Compound 239] was over 10 µM; that for `CCN(CC1CCN(C(C)(C)Cc2ccc(OC)cc2)CC1)C(=O)c1cc2ccccc2[nH]1` [Compound 344] was over 10 µM.
Same read-out and setting: the value for `CCN(CC1CCCN(C(C)(C)Cc2cccc(Cl)c2)C1)C(=O)c1cc2ccccc2[nH]1` (stereo not drawn) [compound 314] was under 1.5 µM; that for `CC(C)N(CC1CCN(Cc2ccc(F)cc2)CC1)C(=O)c1cc2ccccc2[nH]1` [compound 284] was over 10 µM; that for `CCN(CC1CCN(C(C)(C)Cc2cc3ccccc3o2)CC1)C(=O)c1cc2ccccc2[nH]1` [Compound 339] was under 1.5 µM.
Consider `CCN(CC1CCCN(CCc2ccc(F)cc2)C1)C(=O)c1cc2ccccc2[nH]1` (stereo not drawn) [Compound 126], for which the IC50 is over 10 µM.
The same measure, in the same setting: next, `CCN(CC1CCN(C(C)(C)c2ccc(OC)cc2)CC1)C(=O)c1cc2ccccc2[nH]1` [Compound 358]: under 1.5 µM; `CCN(CC1CCCN(CCc2cccc(OC)c2)C1)C(=O)c1ccccn1` (stereo not drawn) [Compound 236]: over 10 µM; `CCN(CC1CCN(Cc2ccccc2)CC1)C(=O)c1cc2ccccc2[nH]1` [compound 291]: 1.5 to 4 µM.
For the compound `CC(C)N(CC1CCN(Cc2cccc(F)c2)CC1)C(=O)c1cc2ccccc2[nH]1` [compound 277], the IC50 was over 10 µM.
Turning to `CCN(CC1CCCCN1CCc1cccc(OC)c1)C(=O)c1cc2ccccc2[nH]1` (stereo not drawn) [Compound 224], the IC50 was in the range of 1.5 to 4 µM.
Same read-out and setting: the value for `CCN(CC1CCCN(c2cccc(OC)c2)C1)C(=O)c1cc2ccccc2[nH]1` (stereo not drawn) [Compound 228] was over 10 µM; that for `CCN(CC1CCN(Cc2ccc(OC)cc2)CC1)C(=O)c1cc2cc(OC)ccc2[nH]1` [compound 404] was under 1.5 µM.
For the compound `O=C(NCC1CCN(Cc2cccc(Cl)c2)CC1)c1cc2ccccc2[nH]1` [compound 271], the IC50 was under 1.5 µM.
On the same count and under the same terms, next, `CCN(CC1CCCN(CC(C)(C)c2cccc(OC(F)F)c2)C1)C(=O)c1cc2cc(OC(F)F)ccc2[nH]1` (stereo not drawn) [Compound 408]: under 1.5 µM; `CCN(CC1CCN(C2CCc3ccc(OC)cc3C2)CC1)C(=O)c1cc2ccccc2[nH]1` (stereo not drawn) [Compound 329]: under 1.5 µM.
Same read-out and setting: next, `CC(C)(Cc1ccccc1)N1CCC(CN(CC(F)(F)F)C(=O)c2cc3ccccc3[nH]2)CC1` [Compound 354]: under 1.5 µM.
`COc1cccc(CCN2CCCC(CN(Cc3ccccc3)C(=O)c3cc4ccccc4[nH]3)C2)c1` (stereo not drawn) [Compound 218]: the IC50 was over 10 µM.
With `COc1ccc(CN2CCC(CNC(=O)c3cc4ccccc4[nH]3)CC2)cc1` [compound 274], the IC50 is over 10 µM.
As for `CC(C)(Cc1ccccc1)N1CCCC(CN(CC(F)(F)F)C(=O)c2cc3ccccc3[nH]2)C1` (stereo not drawn) [Compound 351], the IC50 was under 1.5 µM.
Still for that read-out and setting: the value for `COc1cccc(CCN2CCCC(CN(C(=O)c3cc4ccccc4[nH]3)c3ccccc3)C2)c1` (stereo not drawn) [Compound 144] was under 1.5 µM; that for `CCN(CC1CCN(Cc2cc3ccccc3o2)CC1)C(=O)c1cc2ccccc2[nH]1` [Compound 327] was 7 to 9.9 µM.
Still for that read-out and setting: next, `CCN(CC1CCN(Cc2ccc(OC(F)F)cc2)CC1)C(=O)c1cc2cc(OC(F)F)ccc2[nH]1` [compound 311]: 7 to 9.9 µM; `CCN(CC1CCN(C(C)(C)Cc2ccc(Cl)cc2)CC1)C(=O)c1cc2ccccc2[nH]1` [Compound 341]: under 1.5 µM.
Still for that read-out and setting: the value for `CCN(CC1CCCN(CCc2cccc(OC)c2)C1)C(=O)c1n[nH]c2ccccc12` (stereo not drawn) [Compound 249] was under 1.5 µM; that for `CCN(CC1CCNCC1)C(=O)c1cc2cc(OC(F)(F)F)ccc2[nH]1` [compound 401] was 4 to 7 µM.
For the compound `CCN(CC1CCCNC1)C(=O)c1cc2cc(Cl)ccc2[nH]1` (stereo not drawn) [compound 420], the IC50 is over 10 µM.
Consider `CCN(CC1CCCN(Cc2ccccc2Cl)C1)C(=O)c1cc2ccccc2[nH]1` (stereo not drawn) [Compound 129], for which the IC50 was over 10 µM.
Still for that read-out and setting: the value for `CCN(CC1CCN(C2CCc3ccccc3C2)CC1)C(=O)c1cc2ccccc2[nH]1` (stereo not drawn) [Compound 211] was 1.5 to 4 µM.
Turning to `CCN(CC1CCNCC1)C(=O)c1cc2cc(OC)ccc2[nH]1` [compound 400], the IC50 is over 10 µM.
Consider `O=C(NCC1CCN(Cc2ccc(Cl)cc2)CC1)c1cc2ccccc2[nH]1` [compound 275], for which the half-maximal inhibitory concentration (IC50) is over 10 µM.
The same measure, in the same setting: the value for `COc1cccc(CCN2CCCC(CNC(=O)c3cc4ccccc4[nH]3)C2)c1` (stereo not drawn) [Compound 125] was under 1.5 µM.
The same measure, in the same setting: the value for `CCN(CC1CCN(CC(F)(F)c2ccccc2)CC1)C(=O)c1cc2ccccc2[nH]1` [Compound 411] was under 1.5 µM; that for `CCN(CC1CCCN(C(C)(C)c2ccc(OC)cc2)C1)C(=O)c1cc2cc(OC)ccc2[nH]1` (stereo not drawn) [Compound 356] was under 1.5 µM.
As to `CCN(CC1CCCN(CCc2cccc(OC)c2)C1)C(=O)c1cc(C)c[nH]1` (stereo not drawn) [Compound 229], the IC50 lay within 1.5 to 4 µM.
On the same count and under the same terms, the value for `CN(CC1CCN(Cc2cccc(Cl)c2)CC1)C(=O)c1cc2ccccc2[nH]1` [compound 256] was over 10 µM.
Same read-out and setting: the value for `CCN(CC1CCCN(CCc2ccc3c(c2)OCO3)C1)C(=O)c1cc2ccccc2[nH]1` (stereo not drawn) [Compound 146] was 1.5 to 4 µM.
With `CCN(CC1CCCNC1)C(=O)c1cc2cc(OC(F)F)ccc2[nH]1` (stereo not drawn) [compound 425], the IC50 was over 10 µM.
Same read-out and setting: the value for `COc1ccccc1CN1CCC(CNC(=O)c2cc3ccccc3[nH]2)CC1` [compound 273] was 1.5 to 4 µM; that for `CCN(CC1CCCN(C2CCc3ccccc32)C1)C(=O)c1cc2ccccc2[nH]1` (stereo not drawn) [Compound 207] was under 1.5 µM.
Still for that read-out and setting: the value for `CCN(CC1CCCN(CCc2ccc(C#N)cc2)C1)C(=O)c1cc2ccccc2[nH]1` (stereo not drawn) [Compound 142] was over 10 µM; that for `CCN(CC1CCCN(Cc2ccc(OC)cc2)C1)C(=O)c1cc2ccccc2[nH]1` (stereo not drawn) [Compound 137] was 1.5 to 4 µM.
Turning to `CC(C)N(CC1CCN(Cc2ccccc2F)CC1)C(=O)c1cc2ccccc2[nH]1` [compound 280], the IC50 is over 10 µM.

Still in this assay, the particulars now being: inhibition of TDP-43 aggregation; PC12 TDP-43^Q331K::eGFP, 1 hour pre-treatment, 15 μM sodium arsenite for 23 hours; 10-point dose response.
Regarding `CCN(CC1CCN(CC(C)(C)c2cc3ccccc3o2)CC1)C(=O)c1cc2ccccc2[nH]1` [compound 318], the IC50 was under 1.5 µM.
